Values belong to the molecule of their own block, whether it stands above or below them. The source made the active and inactive calls.
What was measured:
[1] = molecular target: Aspartyl aminopeptidase (Plasmodium falciparum 3D7, UniProt Q8I2J3)
[2] = molecular target: Procathepsin L (Homo sapiens, UniProt P07711)
[3] = HEK-293T cell viability reduction – luminescence, B-cell screen hits, cytotoxicity control for BCR NF-kB inhibitor project, dose response (AID 489021); format: functional, cell-based;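 further: HEK-293T cells carrying an NF-kB luciferase reporter; cells exposed to compound for about 14 hours before viability readout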
[4] = molecular target: Troponin, cardiac muscle (Homo sapiens, UniProt P19429+P45379+P63316); assay: Fluorescence-based biochemical high throughput dose response assay for activators of the calcium sensitivity of cardiac Regulated Thin Filaments (RTF). [Related pubchem assays (depositor defined):AID493008, AID493018, AID504382, AID504383]; format: protein-complex assay
[5] = molecular target: Melanin-concentrating hormone receptor 1 (Homo sapiens, UniProt Q99705); assay: Late-stage fluorescence-based counterscreen for antagonists of the G-protein coupled receptor 7 (GPR7): cell-based dose response assay to identify antagonists of the melanin-concentrating hormone receptor 1 (MCHR1). [Related pubchem assays (depositor defined):AID1861, AID1880, AID1952, AID2148, AID2251, AID2257, AID485339]; format: functional;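 further: stimulated with 30 nM MCH peptide agonist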
Chain of Melanin-concentrating hormone receptor 1 (Q99705 whole entry): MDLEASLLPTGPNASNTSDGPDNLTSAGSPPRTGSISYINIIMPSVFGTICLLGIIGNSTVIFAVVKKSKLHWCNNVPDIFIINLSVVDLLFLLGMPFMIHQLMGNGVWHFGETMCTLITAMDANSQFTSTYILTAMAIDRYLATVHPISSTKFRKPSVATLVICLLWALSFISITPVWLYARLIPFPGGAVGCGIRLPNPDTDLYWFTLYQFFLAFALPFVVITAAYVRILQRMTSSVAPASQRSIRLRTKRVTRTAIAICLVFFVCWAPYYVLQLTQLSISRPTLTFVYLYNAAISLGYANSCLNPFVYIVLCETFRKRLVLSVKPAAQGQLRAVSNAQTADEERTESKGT

[6] = molecular target: T1, Neuropeptides B/W receptor type 1 (Homo sapiens, UniProt P48145); assay: human NPBW1 receptor blockade, IC50 – cell-based, fluorescence, dose response, late-stage follow-up (AID 463251); format: functional
T1 sequence (P48145 whole entry): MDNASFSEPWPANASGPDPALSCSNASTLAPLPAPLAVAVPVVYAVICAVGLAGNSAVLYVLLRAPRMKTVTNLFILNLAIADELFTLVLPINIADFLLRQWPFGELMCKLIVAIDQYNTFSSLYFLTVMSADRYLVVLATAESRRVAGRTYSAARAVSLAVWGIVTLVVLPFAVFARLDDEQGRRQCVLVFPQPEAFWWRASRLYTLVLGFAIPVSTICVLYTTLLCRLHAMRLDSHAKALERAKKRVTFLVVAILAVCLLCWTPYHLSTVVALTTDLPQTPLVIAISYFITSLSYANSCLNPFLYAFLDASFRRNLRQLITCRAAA

[7] = molecular target: T2, Cytochrome P450 2D6 (Homo sapiens, UniProt P10635);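 further: CYP2D6 member of a cytochrome P450 panel assay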
T2 sequence (P10635 whole entry): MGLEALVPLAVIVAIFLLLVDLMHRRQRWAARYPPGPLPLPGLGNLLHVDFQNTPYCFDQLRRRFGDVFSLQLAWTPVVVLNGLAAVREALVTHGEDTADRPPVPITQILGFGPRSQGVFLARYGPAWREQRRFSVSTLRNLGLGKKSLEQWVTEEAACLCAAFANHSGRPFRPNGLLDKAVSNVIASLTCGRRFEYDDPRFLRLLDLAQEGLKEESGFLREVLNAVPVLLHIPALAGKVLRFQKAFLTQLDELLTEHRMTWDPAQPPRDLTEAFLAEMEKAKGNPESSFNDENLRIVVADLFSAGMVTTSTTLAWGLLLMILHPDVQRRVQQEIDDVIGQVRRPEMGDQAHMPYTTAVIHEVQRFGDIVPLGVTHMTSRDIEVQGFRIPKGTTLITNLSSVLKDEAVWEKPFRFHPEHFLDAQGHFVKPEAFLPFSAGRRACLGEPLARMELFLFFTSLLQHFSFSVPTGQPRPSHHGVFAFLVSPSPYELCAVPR

[8] = molecular target: T3, Delta-type opioid receptor (Homo sapiens, UniProt P41143); assay: HTS Image-Based Screen for Antagonists of the DOR Receptor. [Related pubchem assays (depositor defined):AID1777, AID1785, AID1786, AID2133]; format: functional
T3 sequence (P41143 whole entry): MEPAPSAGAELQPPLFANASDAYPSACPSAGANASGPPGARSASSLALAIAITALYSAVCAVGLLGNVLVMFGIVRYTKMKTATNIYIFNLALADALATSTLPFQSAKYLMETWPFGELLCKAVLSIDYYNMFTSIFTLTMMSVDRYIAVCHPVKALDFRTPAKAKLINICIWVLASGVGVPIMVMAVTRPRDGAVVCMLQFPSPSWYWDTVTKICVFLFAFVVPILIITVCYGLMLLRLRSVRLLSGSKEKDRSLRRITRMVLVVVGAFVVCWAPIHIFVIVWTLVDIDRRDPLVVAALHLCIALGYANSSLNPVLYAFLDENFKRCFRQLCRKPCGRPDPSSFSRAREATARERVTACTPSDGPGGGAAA

[9] = molecular target: T4, Kappa-type opioid receptor (Homo sapiens, UniProt P41145); format: functional
T4 sequence (P41145 whole entry): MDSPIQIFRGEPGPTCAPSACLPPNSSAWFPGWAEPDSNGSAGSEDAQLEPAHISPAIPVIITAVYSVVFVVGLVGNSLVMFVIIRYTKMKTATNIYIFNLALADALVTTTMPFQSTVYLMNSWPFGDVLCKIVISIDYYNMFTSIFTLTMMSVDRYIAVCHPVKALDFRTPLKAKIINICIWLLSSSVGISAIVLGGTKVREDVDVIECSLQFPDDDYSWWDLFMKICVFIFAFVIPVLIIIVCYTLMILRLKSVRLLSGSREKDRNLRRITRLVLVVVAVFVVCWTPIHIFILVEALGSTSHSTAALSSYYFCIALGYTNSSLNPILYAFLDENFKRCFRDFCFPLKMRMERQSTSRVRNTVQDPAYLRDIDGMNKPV

[10] = molecular target: T4, Kappa-type opioid receptor; format: functional; remark: listed apart in the source
[11] = molecular target: Beta-galactosidase (Escherichia coli, UniProt Q8VNN2); format: functional
[12] = molecular target: Mu-type opioid receptor (Homo sapiens, UniProt P35372); assay: HTS Image-Based Screen for Agonists of the MOR Receptor. [Related pubchem assays (depositor defined):AID1777, AID1785, AID1786, AID2133]; format: functional;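 further: imaging of beta-arrestin GFP recruitment into spots after receptor activation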
[13] = molecular target: T3, Delta-type opioid receptor; assay: HTS Image-Based Screen for Agonists of the DOR Receptor. [Related pubchem assays (depositor defined):AID1777, AID1786, AID2133]; format: functional
[14] = molecular target: T5, Mannose-6-phosphate isomerase (Homo sapiens, UniProt P34949); assay: MPI enzyme activity inhibition – biochemical, fluorescence intensity, coupled assay, primary screen (AID 1209)
T5 sequence (P34949 whole entry): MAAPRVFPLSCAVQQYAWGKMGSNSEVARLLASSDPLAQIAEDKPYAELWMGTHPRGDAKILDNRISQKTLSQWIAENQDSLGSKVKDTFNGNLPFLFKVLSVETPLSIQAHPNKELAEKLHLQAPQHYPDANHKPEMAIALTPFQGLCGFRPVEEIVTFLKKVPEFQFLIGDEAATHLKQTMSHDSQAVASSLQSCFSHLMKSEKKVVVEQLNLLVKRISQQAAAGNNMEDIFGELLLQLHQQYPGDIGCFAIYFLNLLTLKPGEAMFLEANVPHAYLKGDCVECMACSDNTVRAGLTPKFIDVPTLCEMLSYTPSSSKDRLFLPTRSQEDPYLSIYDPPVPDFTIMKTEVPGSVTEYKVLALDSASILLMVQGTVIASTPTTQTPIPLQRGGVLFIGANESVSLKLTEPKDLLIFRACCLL

[15] = molecular target: Eukaryotic translation initiation factor 4E (Mus musculus, UniProt P63073); assay: blockers of eIF4G binding by eIF4E – biochemical, TR-FRET, dose response (AID 855); format: functional;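 further: potency for disrupting eIF4E binding to eIF4GI seen as loss of FRET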
Chain of Eukaryotic translation initiation factor 4E (P63073 whole entry): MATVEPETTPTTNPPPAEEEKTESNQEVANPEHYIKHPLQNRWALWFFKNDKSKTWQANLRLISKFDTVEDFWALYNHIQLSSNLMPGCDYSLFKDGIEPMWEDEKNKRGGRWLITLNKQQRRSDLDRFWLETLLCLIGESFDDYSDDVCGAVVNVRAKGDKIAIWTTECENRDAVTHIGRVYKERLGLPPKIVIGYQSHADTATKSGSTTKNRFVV

[16] = molecular target: DNA dC->dU-editing enzyme APOBEC-3G (Homo sapiens, UniProt Q9HC16); assay: Dose Response confirmation of small molecule APOBEC3G DNA Deaminase Inhibitors via a fluorescence-based single-stranded DNA deaminase assay. [Related pubchem assays (depositor defined):AID493012, AID493028]; format: functional
[17] = molecular target: DNA dC->dU-editing enzyme APOBEC-3A (Homo sapiens, UniProt P31941); assay: A3A deaminase inhibition for selectivity – biochemical, dose response (AID 504722); format: functional
[18] = molecular target: T6, Voltage-gated N-type calcium channel alpha-1B subunit/Amyloid beta A4 precursor protein-binding family A member 1 (Homo sapiens, UniProt Q00975+Q02410); format: protein assay
T6 sequence (Q00975 whole entry): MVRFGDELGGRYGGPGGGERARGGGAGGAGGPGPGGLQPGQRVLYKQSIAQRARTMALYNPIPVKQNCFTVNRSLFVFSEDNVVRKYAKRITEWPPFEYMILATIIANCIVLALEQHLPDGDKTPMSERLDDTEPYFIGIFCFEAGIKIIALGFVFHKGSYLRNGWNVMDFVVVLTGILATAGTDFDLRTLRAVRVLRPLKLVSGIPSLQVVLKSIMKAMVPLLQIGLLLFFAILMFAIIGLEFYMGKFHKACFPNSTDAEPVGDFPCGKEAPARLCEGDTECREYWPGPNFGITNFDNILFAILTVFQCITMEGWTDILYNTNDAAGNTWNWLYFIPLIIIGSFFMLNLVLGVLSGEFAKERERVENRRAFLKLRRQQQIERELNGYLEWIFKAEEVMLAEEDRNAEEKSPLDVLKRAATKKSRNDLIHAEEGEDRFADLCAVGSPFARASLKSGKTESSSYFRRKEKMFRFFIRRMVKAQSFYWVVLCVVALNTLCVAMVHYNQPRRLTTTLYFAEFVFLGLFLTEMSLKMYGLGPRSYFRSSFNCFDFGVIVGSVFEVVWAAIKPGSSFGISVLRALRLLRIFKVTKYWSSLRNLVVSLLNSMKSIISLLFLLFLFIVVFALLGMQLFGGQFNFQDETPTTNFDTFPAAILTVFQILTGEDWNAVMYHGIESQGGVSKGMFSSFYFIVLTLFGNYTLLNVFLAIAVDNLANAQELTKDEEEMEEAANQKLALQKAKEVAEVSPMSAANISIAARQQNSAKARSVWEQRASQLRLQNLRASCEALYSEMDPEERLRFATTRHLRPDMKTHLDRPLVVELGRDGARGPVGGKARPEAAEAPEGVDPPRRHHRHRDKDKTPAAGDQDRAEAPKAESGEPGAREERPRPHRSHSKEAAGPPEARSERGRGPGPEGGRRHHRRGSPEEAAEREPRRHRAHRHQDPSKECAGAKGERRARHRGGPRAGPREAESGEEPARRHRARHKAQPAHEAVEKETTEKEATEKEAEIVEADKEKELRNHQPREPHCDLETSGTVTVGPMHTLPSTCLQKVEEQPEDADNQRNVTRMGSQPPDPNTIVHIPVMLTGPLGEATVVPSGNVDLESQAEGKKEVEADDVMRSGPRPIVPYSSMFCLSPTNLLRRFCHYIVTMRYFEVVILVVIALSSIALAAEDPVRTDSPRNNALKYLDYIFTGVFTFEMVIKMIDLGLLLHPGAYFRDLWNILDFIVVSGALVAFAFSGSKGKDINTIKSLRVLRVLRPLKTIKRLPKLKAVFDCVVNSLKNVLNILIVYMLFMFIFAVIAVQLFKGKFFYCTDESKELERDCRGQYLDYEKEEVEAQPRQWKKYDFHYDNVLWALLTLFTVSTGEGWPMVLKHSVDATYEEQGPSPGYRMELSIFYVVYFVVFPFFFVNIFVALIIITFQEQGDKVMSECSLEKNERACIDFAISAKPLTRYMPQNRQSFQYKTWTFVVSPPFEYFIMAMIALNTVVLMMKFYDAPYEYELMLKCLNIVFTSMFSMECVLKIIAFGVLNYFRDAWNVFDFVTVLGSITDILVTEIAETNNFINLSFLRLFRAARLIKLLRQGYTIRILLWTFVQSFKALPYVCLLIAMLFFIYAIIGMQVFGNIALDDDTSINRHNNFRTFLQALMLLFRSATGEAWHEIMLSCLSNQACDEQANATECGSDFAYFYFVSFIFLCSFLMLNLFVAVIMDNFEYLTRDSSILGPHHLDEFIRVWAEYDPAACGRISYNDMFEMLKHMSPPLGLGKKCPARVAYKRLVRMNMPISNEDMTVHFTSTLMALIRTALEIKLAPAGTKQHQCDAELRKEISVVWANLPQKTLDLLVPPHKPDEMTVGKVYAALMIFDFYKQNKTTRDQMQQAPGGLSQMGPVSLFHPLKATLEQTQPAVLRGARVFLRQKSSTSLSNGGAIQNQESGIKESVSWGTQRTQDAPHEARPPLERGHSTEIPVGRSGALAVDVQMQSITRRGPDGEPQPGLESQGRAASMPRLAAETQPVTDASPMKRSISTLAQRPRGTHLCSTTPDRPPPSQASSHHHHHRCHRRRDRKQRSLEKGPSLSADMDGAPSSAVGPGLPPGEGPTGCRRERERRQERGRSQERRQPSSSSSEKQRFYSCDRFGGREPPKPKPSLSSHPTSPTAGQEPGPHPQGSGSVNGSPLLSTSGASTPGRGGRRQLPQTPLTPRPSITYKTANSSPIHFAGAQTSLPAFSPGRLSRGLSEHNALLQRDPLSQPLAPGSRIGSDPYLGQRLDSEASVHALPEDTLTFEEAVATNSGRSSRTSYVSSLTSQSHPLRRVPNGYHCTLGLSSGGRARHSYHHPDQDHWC
T6 sequence (Q02410 whole entry): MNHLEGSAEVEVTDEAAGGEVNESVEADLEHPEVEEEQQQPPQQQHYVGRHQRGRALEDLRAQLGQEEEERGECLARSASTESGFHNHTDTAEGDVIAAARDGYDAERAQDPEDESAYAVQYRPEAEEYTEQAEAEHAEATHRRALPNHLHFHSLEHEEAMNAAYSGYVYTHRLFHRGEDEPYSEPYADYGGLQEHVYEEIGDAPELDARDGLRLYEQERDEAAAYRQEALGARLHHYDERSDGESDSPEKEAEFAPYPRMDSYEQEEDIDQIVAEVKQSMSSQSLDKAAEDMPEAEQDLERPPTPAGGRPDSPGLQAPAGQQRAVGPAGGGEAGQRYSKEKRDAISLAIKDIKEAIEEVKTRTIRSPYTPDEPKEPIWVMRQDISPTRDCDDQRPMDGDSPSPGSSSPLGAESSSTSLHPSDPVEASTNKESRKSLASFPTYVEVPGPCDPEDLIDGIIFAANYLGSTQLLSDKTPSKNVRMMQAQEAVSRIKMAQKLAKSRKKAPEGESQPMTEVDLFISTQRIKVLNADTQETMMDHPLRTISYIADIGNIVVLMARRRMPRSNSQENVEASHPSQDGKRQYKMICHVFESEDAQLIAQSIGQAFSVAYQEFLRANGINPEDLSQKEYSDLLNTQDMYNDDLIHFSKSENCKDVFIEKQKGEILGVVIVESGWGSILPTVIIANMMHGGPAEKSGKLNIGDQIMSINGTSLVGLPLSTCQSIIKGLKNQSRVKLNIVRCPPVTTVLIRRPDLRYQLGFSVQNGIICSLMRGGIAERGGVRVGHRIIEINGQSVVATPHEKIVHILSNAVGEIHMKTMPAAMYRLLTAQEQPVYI

[19] = molecular target: T6, Voltage-gated N-type calcium channel alpha-1B subunit/Amyloid beta A4 precursor protein-binding family A member 1; format: protein assay; remark: listed apart in the source
[20] = molecular target: T7, Eukaryotic translation initiation factor 2-alpha kinase 3 (Homo sapiens, UniProt Q9NZJ5); assay: Dose response cell-based high-throughput screening assay to measure PERK inhibition. [Related pubchem assays: 1416 ]; format: functional
T7 sequence (Q9NZJ5 whole entry): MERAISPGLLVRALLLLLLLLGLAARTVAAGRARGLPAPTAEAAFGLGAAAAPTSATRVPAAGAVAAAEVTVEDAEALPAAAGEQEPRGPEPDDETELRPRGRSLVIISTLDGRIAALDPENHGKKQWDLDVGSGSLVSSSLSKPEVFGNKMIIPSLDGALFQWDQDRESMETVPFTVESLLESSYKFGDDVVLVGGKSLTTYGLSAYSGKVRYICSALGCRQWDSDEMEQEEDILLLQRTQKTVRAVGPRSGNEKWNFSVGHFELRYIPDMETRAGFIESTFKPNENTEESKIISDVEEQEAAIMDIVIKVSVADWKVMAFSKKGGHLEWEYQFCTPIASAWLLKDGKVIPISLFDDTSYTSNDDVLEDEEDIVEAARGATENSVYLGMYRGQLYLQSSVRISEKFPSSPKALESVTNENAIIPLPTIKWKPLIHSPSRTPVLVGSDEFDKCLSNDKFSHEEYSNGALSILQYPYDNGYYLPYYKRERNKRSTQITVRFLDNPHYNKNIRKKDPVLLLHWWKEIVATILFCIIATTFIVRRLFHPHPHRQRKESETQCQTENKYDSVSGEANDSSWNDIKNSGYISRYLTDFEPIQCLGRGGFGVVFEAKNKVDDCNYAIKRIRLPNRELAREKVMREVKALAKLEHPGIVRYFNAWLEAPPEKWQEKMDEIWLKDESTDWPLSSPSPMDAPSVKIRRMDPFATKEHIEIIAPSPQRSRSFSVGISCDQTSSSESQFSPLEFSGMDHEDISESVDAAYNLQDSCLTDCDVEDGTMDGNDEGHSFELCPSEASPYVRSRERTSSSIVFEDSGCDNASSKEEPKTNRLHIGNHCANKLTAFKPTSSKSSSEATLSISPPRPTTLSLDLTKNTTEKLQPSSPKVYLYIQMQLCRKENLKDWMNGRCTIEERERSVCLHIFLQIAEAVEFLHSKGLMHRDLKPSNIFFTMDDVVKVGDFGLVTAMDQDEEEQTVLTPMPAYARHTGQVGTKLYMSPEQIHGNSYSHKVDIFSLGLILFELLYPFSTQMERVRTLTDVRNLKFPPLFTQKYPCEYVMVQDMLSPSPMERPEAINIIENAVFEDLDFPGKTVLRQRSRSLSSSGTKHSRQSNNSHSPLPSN

[21] = molecular target: T7, Eukaryotic translation initiation factor 2-alpha kinase 3; assay: Counterscreen assay for PERK inhibitors: Dose response cell-based high throughput screening assay to measure inhibition of PERK at 6 hours. [Related pubchem assays: 1522, 1416 ]; format: functional
[22] = molecular target: T2, Cytochrome P450 2D6; remark: listed apart in the source

IC50 [1]: 1.52 µM (active) | IC50 [2]: > 59.6 µM (not active)
Structure (SMILES): CCOC(=O)C1=C(CS(=O)(=O)c2ccc(F)cc2)NC(=O)NC1c1ccc(O)c(O)c1 (stereo not given)

Structure (SMILES): COc1ccccc1/C=C1\SC(=S)N(CCC(=O)NC2=NCCS2)C1=O
IC50 [3]: > 80 µM (inactive)

EC50 [4]: 24.4 µM (inactive)
Structure (SMILES): CCOC(=O)c1cc2n(c1N)-c1ccccc1C2=O

IC50 [5]: 20 µM (inactive) | IC50 [6]: > 20 µM (inactive)
Structure (SMILES): COc1ccc(Oc2c(-c3ccccc3)cnn(-c3ccc(C)cc3)c2=O)cc1

IC50 [5]: 5.7 µM (active) | IC50 [6]: > 20 µM (inactive)
Structure (SMILES): COc1ccc(Oc2c(N3CCCCC3)cnn(-c3ccc(C(C)C)cc3)c2=O)cc1

AC50 [7]: inconclusive
Structure (SMILES): CC(=O)N1c2ccc(S(=O)(=O)CCC(=O)O)cc2CC1C (stereo not given)

IC50 [8]: > 32 µM (inactive) | IC50 [9]: 5.52 µM (active) | IC50 [10]: > 32 µM | EC50 [11]: > 31.5 µM (inactive) | EC50 [12]: > 32 µM (inactive) | EC50 [13]: > 32 µM (inactive)
Structure (SMILES): COc1ccccc1/N=c1\scc(-c2ccc3c(c2)NC(=O)CO3)n1CC1CCCO1 (stereo not given)

Structure (SMILES): N#Cc1cccc(/N=c2\ssnc2Cl)c1
IC50 [14]: 26.7 µM (active) | IC50 [15]: 50 µM (inactive) | IC50 [16]: 7.4 µM (active) | IC50 [17]: > 100 µM (inactive) | IC50 [18]: 11.3 µM (active) | IC50 [19]: 10.9 µM (active)

EC50 [20]: > 55.7 µM (not active) | EC50 [21]: > 55.7 µM (not active)
Structure (SMILES): C/N=C1\SC(CC(=O)Nc2ccccc2F)C(=O)N1C (stereo not given)

AC50 [7]: 10 µM (inconclusive) | AC50 [22]: 10 µM (inconclusive)
Structure (SMILES): CC(=O)Oc1cc(C(C)C)c(OCCN(C)C)cc1C [MOXISYLYTE]

From ChEMBL document CHEMBL1201862, “PubChem BioAssay data set” (2004)
